According to paper PMC12546632, “The role of cytochrome bc1 inhibitors in future tuberculosis treatment regimens” (Nature Communications, 2025):
Values after ≈ are worked out from the molar mass of the structure shown. Values joined by “and” are separate entries in the source; they are usually repeats but may differ in a detail not shown here. Equal values may be shown once. Read-outs that look alike come from different tables or passages of the source.

Assays:
WT H37Rv = assay type: cell-based, Mycobacterium tuberculosis; settings: biological replicates
N1283 clinical isolate = assay type: cell-based, Mycobacterium tuberculosis; settings: biological replicates
[1] = tested on: M. tuberculosis ΔcydAB (Parent); assay: microbe, parasite or virus in culture; assay type: cell-based
M. tuberculosis HN878 = settings: telacebec added to BPaC, after 4 weeks of treatment; cited from earlier work
clinical isolate, N1283 = tested on: clinical isolate, N1283; set-up: species or system Mycobacterium tuberculosis; settings: in vivo
M. tuberculosis H37Rv [2] = assay: MIC90 determination, H37Rv; assay type: cell-based, Mycobacterium tuberculosis
H37Rv_CydBd-KO = assay: microbe, parasite or virus in culture; assay type: cell-based, Mycobacterium tuberculosis
[3] = tested on: M. tuberculosis clinical isolates; assay: microbe, parasite or virus in culture; assay type: cell-based, Mycobacterium tuberculosis
M. tuberculosis H37Rv [4] = assay: MBC99.9 determination, H37Rv; assay type: cell-based, Mycobacterium tuberculosis
H37Rv_CytBd-KO = assay: microbe, parasite or virus in culture; assay type: cell-based, Mycobacterium tuberculosis; settings: read-out: MBC99.9 (H37Rv_CytBd-KO)
[5] = assay type: in vitro ADME
Experimental: (§1) Details of the metabolic stability in liver microsomes and hepatocytes together with CYP inhibition in human liver microsomes and plasma protein binding have been published previously. The CYP induction assay was conducted by Puracyp Inc (www.puracyp.com). Studies were designed to evaluate the effect of compounds on the activation of human PXR (hPXR). The DPX2TM cells harbour the human PXR gene (NR1I2) and a luciferase reporter gene linked to two promoters identified in the human CYP3A4 gene, namely XREM and PXRE. These cells were seeded in a 96-well plate. Twenty-four hours after seeding, the cells were treated with various concentrations of compounds then incubated for an additional 24 h. Following this, the number of viable cells per well were determined using Promega’s CellTiter Fluor Cytotoxicity Assay. Briefly, One-Glo was added to the same wells and reporter gene activity was assessed. The luminescence light intensity was directly proportional to the extent of PXR activation and accompanying gene transcription in the DPX2TM cells.

human PXR (hPXR) = human PXR (hPXR) (Homo sapiens, UniProt O75469); assay type: in vitro ADME
Experimental: as §1

[6] = assay type: in vitro ADME; settings: hepatocytes
3A4 = target: T1, 3A4 (Homo sapiens, UniProt P08684); assay type: in vitro ADME
T1 construct: from tissue; host or cells: human liver microsomes

2C19 = target: T2, 2C19 (Homo sapiens, UniProt P33261); assay type: in vitro ADME
T2 construct: from tissue; host or cells: human liver microsomes

2C8 = target: T3, 2C8 (Homo sapiens, UniProt P10632); assay type: in vitro ADME
T3 construct: from tissue; host or cells: human liver microsomes

2C9 = target: T4, 2C9 (Homo sapiens, UniProt P11712); assay type: in vitro ADME
T4 construct: from tissue; host or cells: human liver microsomes

2D6 = target: T5, 2D6 (Homo sapiens, UniProt P10635); assay type: in vitro ADME
T5 construct: from tissue; host or cells: human liver microsomes

1A2 = target: T6, 1A2 (Homo sapiens, UniProt P05177); assay type: in vitro ADME
T6 construct: from tissue; host or cells: human liver microsomes

[7] = tested on: Salmonella typhimurium strains TA98 and TAMix
[8] = mouse, in vivo, iv, 1 mg/kg

human PXR (hPXR), sequence (O75469 whole entry): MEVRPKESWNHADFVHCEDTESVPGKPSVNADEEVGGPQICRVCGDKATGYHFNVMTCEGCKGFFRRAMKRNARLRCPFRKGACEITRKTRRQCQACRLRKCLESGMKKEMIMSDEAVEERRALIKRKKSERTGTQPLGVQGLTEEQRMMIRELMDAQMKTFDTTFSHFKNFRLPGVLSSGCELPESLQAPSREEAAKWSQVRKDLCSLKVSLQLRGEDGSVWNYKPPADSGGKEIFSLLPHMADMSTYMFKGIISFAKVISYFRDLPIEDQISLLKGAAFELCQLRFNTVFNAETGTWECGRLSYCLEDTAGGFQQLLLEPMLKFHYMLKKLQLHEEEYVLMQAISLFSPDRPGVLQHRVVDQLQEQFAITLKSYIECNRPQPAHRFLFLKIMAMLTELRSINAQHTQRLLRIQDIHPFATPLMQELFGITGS
T4 sequence (P11712 whole entry): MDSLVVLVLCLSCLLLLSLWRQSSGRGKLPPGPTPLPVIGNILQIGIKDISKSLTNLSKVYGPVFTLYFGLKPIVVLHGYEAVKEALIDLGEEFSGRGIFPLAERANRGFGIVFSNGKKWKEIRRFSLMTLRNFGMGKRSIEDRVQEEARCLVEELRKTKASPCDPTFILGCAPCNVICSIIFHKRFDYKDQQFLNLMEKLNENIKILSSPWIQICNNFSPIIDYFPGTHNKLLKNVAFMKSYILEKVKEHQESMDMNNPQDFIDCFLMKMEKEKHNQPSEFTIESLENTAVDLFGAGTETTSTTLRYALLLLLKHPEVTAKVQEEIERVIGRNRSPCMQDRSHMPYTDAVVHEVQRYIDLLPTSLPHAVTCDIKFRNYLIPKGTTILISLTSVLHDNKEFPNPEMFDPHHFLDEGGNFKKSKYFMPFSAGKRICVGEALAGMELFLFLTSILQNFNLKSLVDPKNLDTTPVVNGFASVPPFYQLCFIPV
T3 sequence (P10632 whole entry): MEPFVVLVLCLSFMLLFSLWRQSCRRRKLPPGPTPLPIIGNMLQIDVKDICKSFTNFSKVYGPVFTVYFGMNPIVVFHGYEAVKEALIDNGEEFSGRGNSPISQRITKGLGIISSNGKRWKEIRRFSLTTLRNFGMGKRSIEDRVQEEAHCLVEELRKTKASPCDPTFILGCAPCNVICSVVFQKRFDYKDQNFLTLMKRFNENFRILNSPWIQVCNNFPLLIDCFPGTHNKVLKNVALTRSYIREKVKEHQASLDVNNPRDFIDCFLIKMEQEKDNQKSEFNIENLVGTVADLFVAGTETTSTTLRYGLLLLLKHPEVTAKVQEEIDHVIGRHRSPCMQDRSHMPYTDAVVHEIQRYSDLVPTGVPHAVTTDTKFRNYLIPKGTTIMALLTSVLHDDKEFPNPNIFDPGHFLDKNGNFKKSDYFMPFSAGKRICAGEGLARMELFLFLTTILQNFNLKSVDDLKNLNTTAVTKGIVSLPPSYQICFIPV
T5 sequence (P10635 whole entry): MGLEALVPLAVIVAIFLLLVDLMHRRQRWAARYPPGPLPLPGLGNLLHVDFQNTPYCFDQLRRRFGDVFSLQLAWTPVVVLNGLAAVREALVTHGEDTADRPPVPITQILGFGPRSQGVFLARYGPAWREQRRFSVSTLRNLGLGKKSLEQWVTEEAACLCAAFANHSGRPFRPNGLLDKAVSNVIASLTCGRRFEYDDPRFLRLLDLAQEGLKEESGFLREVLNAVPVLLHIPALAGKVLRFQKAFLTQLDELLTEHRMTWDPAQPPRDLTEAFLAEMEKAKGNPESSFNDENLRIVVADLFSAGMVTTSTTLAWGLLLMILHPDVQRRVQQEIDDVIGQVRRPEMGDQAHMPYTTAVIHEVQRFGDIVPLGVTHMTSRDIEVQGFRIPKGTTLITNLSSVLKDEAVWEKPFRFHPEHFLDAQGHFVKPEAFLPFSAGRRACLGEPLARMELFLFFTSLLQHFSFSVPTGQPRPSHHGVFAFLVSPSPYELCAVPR
T6 sequence (P05177 whole entry): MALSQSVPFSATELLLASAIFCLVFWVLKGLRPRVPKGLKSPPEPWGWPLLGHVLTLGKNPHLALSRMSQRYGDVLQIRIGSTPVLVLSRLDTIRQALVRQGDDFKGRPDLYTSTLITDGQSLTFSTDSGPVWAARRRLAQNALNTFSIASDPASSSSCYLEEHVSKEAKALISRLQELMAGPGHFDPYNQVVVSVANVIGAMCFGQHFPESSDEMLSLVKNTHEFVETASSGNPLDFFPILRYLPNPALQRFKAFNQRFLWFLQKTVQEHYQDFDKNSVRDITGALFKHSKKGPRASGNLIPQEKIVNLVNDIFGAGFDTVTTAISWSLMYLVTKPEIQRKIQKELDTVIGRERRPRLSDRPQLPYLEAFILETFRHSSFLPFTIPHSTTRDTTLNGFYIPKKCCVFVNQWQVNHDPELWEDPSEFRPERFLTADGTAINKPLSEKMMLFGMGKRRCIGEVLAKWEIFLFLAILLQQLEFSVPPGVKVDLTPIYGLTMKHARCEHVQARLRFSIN
T2 sequence (P33261 whole entry): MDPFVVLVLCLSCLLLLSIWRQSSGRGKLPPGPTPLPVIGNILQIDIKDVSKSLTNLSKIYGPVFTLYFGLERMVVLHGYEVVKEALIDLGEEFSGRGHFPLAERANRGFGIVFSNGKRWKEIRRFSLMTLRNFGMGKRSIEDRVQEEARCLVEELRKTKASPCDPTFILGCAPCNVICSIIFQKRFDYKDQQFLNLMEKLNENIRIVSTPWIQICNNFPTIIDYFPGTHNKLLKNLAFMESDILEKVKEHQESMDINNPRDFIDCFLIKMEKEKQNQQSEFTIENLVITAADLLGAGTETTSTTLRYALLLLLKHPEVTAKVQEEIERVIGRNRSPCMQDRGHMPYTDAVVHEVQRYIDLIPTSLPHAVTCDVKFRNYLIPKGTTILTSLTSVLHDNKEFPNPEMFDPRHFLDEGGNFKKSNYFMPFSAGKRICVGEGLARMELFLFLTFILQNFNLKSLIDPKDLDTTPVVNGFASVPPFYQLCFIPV
T1 sequence (P08684 whole entry): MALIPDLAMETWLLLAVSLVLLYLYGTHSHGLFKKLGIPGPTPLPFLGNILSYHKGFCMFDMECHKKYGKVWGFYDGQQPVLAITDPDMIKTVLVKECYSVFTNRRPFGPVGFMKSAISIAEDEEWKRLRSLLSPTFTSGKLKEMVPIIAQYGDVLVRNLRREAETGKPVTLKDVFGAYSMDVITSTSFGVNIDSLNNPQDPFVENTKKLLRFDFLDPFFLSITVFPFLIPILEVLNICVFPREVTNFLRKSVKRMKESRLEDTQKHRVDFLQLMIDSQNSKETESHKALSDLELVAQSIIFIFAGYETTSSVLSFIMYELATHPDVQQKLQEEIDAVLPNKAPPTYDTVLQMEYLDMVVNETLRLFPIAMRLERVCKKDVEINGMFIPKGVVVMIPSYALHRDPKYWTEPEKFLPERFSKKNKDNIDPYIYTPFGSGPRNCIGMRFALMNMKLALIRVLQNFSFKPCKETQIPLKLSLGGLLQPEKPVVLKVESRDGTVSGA

In the case of `CCc1nc2ccc(Cl)cn2c1C(=O)NCc1ccc(N2CCC(c3ccc(OC(F)(F)F)cc3)CC2)cc1` [telacebec, reference compound], the CFU counts (WT H37Rv; Conc 8 nM) is reported as 30000000 CFU and 50000000 CFU, the CFU counts (WT H37Rv; Conc 32 nM) is reported as 19000000 CFU and 32000000 CFU and 49500000 CFU and the CFU counts (WT H37Rv; Conc 128 nM) is reported as 20000000 CFU and 17000000 CFU and 41500000 CFU and 12000000 CFU. The CFU counts (N1283 clinical isolate; Conc 8 nM) was 16000000 CFU and 19000000 CFU and 60000000 CFU and 40000000 CFU, the CFU counts (N1283 clinical isolate; Conc 32 nM) was 130000 CFU and 900000 CFU and 7000000 CFU and 8000000 CFU and the CFU counts (N1283 clinical isolate; Conc 128 nM) was 180000 CFU and 380000 CFU and 120000 CFU and 150000 CFU. For the same molecule, the MIC50 ([1]; Mycobacterium tuberculosis) was 10 nM (≈ 5.57 ng/mL) and the “reduction in lung bacterial burden compared to BPaC alone” value (M. tuberculosis HN878) was 2 log.
Work on `CCc1nc2ncc(C)cn2c1C(=O)NCc1ccc(N2CCN(S(=O)(=O)C(F)(F)F)C=N2)c(F)c1` [JNJ-4052] yielded a CFU reduction (clinical isolate, N1283) of 1.6 log10, an MIC90 (M. tuberculosis H37Rv [2]; read-out: MIC90 (H37Rv)) of 7 nM (≈ 3.69 ng/mL) and an MIC90 (M. tuberculosis H37Rv [2]; strain H37Rv (Institut Pasteur, lineage 4), read-out: MIC90) of 6 nM (≈ 3.17 ng/mL). The MIC90 (H37Rv_CydBd-KO) was 7 nM (≈ 3.69 ng/mL), the MIC90 ([3]; strain Mtb-0617 (Karonga, lineage 3)) was 1.3 nM (≈ 0.686 ng/mL) and the MIC90 ([3]; strain Mtb-2703 (Karonga, lineage 3)) was 0.13 nM (≈ 0.0686 ng/mL). For the same molecule, the MIC90 ([3]; strain Mtb-4779 (Karonga, lineage 2)) was 0.29 nM (≈ 0.153 ng/mL), the MIC90 ([3]; strain Mtb-4980 (Karonga, lineage 4)) was 0.7 nM (≈ 0.369 ng/mL) and the MIC90 ([3]; strain Mtb-6787 (Karonga, lineage 4)) was 0.71 nM (≈ 0.375 ng/mL). It also gave an MIC90 ([3]; strain Mtb-7489 (Karonga, lineage 1)) of 2.5 nM (≈ 1.32 ng/mL), an MIC90 ([3]; strain Mtb-7496 (Karonga, lineage 3)) of 0.29 nM (≈ 0.153 ng/mL) and an MIC90 ([3]; strain Mtb-9271 (Karonga, lineage 4)) of 0.2 nM (≈ 0.106 ng/mL). It also gave an MIC90 ([3]; strain Mtb-61164 (Karonga, lineage 2)) of 0.79 nM (≈ 0.417 ng/mL), an MIC90 ([3]; strain N0054 (Gagneux, lineage 3)) of 0.85 nM (≈ 0.448 ng/mL) and an MIC90 ([3]; strain N0072 (Gagneux, lineage 1)) of 1.2 nM (≈ 0.633 ng/mL). For the same molecule, the MIC90 ([3]; strain N1283 (Gagneux, lineage 4)) was 0.73 nM (≈ 0.385 ng/mL), the MBC (M. tuberculosis H37Rv [4]) was over 1250 nM and the MBC (H37Rv_CytBd-KO) was 300 nM (≈ 158 ng/mL). The CFU counts (WT H37Rv; Conc 8 nM) was 50000000 CFU and 20000000 CFU and 53000000 CFU and 30000000 CFU, the CFU counts (WT H37Rv; Conc 32 nM) was 17000000 CFU and 12000000 CFU and the CFU counts (WT H37Rv; Conc 128 nM) was 26000000 CFU and 17000000 CFU. The CFU counts (N1283 clinical isolate; Conc 8 nM) was 2200000 CFU and 6000000 CFU and 800000 CFU and 200000 CFU, the CFU counts (N1283 clinical isolate; Conc 32 nM) was 150000 CFU and 400000 CFU and 80000 CFU and 50000 CFU and the CFU counts (N1283 clinical isolate; Conc 128 nM) was 170000 CFU and 300000 CFU and 90000 CFU and 80000 CFU. The MIC50 ([1]; Parent (ΔcydAB)) was 10 nM (≈ 5.28 ng/mL), the “Plasma protein binding, Rat (% free)” value [5] was 2.67 % free and the “Dog Hep Clint” value ([5]; hepatocytes) was 4.7 µL min-1 106 cells-1. The “Human Hep Clint” value ([5]; hepatocytes) was 6.7 µL min-1 106 cells-1, the “Rat Hep Clint” value ([5]; hepatocytes) was 19 µL min-1 106 cells-1 and the “Dog LM Clint” value ([5]; microsomes) was under 7.7 µL min-1 mg protein-1. The “Human LM Clint” value ([5]; microsomes) was 20.4 µL min-1 mg protein-1, the “Mouse LM Clint” value ([5]; microsomes) was 42 µL min-1 mg protein-1 and the “Rat LM Clint” value ([5]; microsomes) was 16.7 µL min-1 mg protein-1. For the same molecule, the “Cyp3A4 ind. (%ctrl)” value (human PXR (hPXR); 1 µM) was 3.0 %ctrl, the “Cyp3A4 ind. (%ctrl)” value (human PXR (hPXR); 10 µM) was 21.2 %ctrl and the “Mouse Hep Clint” value [6] was 12 µL min-1 106 cells-1. The IC50 (3A4) was over 20 µM, the IC50 (2C19) was over 20 µM and the IC50 (2C8) was over 20 µM. It also gave an IC50 (2C9) of over 20 µM, an IC50 (2D6) of over 20 µM and an IC50 (1A2) of over 20 µM. For the same molecule, the IC20 (HepG2 cells) was 98.8 µM, the “Mutagenicity (AMES II)” value [7] was “negative” and the “CLp as % LBF” value [8] was ~ 11 % LBF.
